Literature values in patent US5849733A, “2-thio or 2-oxo flavopiridol analogs” (Bristol-Myers Squibb Co., priority 1997, dated 1998).

Tested on: apoptosis
Details: J. Cell Sci., 108, 2897 (1995)

Compound: Cn1cnc2c(NCc3ccccc3)nc(NCCO)nc21 [olomucine]
- synergy with known cytotoxic agents in inducing apoptosis: act synergistically with known cytotoxic agents in inducing apoptosis
